Measurements reported in patent US20090203678A1, “PHARMACEUTICAL COMPOSITIONS FOR THE TREATMENT OF PROTOZOAN PARASITIC DISEASES” (priority 2006, published 2009).
Peptide text beside a SMILES is read from it. * marks the point of attachment. Cbz = O=C(OCc1ccccc1)*; CH2F = FC*

How the values were obtained:
[1] = tested on: P. falciparum induced endothelial permeability of HLEC monolayer; experiment: Endothelial barrier integrity assay (Evans Blue diffusion through HLEC monolayer); format: cell-based, human
Protocol: In order to measure the effect of treatments on pre-exposed pRBCs endothelial cells, we developed a method based on Evans Blue diffusion through endothelial monolayer. Briefly HLEC were raised on Transwell Permeable supports (polyester membrane, 3 μm pore size, 6.5 mm diameter, Corning Incorporated Life Sciences) until confluence in M199 medium. Mature forms of 3D7 P. falciparum clone were then harvested from culture and adjusted at 1% of hematocrit and 50% of parasitemia before 4 hours co-incubation at 37° C. 5% CO2. After PRBC exposure, endothelial cell monolayers were treated 20 hours with Fasudil (1 μM or 30 μM). […] Lower compartments were finally collected for optical density analysis at 630 nm of diffused Evans Blue, using a standard microtiter plate reader (Bio-Tek™ EL311SX, Instruments Inc).
Briefly, P. falciparum cytoadherence effect on endothelial barrier function was assessed by culturing HLEC in Transwell inserts until confluence before exposing them 4 hours to mature forms of pRBC as above. The quantity of Evans Blue collected in lower compartments was markedly higher in pRBC/HLEC co-incubation conditions than in control RBC/HLEC (p<0.01) or non-exposed endothelial cell conditions (p<0.01). […]
Briefly, HLEC were cultured in Transwell inserts until confluence. […] Endothelial barrier integrity was assessed as described above.

[2] = tested on: NF-kappaB nuclear translocation in HLEC; experiment: NF-kappaB P65 nuclear translocation (endothelial activation) in pRBC-exposed HLEC; format: cell-based, human; settings: Fasudil 30 μM added concomitantly with pRBC, 6 hours, P<0.005 (FIG. 8)
Protocol: Briefly, HLEC were cultured in 8-chambers Labtek plates and exposed to pRBC during 6 hours at 1% of hematocrit and 50% of parasitemia. Rho-kinase inhibitor Fasudil was added concomitantly with pRBC at 30 μM. TNFβ at 20 ng/ml was used as a positive control of NF-kappaB nuclear translocation. Cells were then fixed and permeabilized for immunostaining with primary anti-NF-kappaB P65 subunit antibody and secondary FITC-anti-mouse IgG antibody. Nuclei were stained with diamidino-phenylindole (DAPI). After immunostaining of NF-kappaB P65 subunit, results were analysed by fluorescence microscopy and the number of activated HLEC (cells with complete but not partial migration nuclear P65 staining) per each condition (n=4) was counted (FIG. 8).

RhoA/Rho-kinase pathway = experiment: G-LISA RhoA/Rho-kinase pathway activation assay in HLEC co-incubated with P. falciparum pRBC; format: cell-based, human; settings: Fasudil 30 μM, 24 hours pRBC-contact co-incubation with HLEC, compared to pRBC alone, p<0.05 (FIG. 2)
Protocol: Activity of RhoA and its downstream effector Rho-kinase was assessed using G-LISA™ RhoA Activation Assay Biochem Kit purchased from Cytoskeleton (Denver, Colo.). The principle of the assay is to determine the amount of active GTP-bound RhoA extracted from cultured cells with a Rho-GTP-binding protein coated 96-well plate and final detection with immunoreagents. Briefly, HLEC were cultured in 6-well plates until 50-70% confluence as recommended by the manufacturer and exposed to P. falciparum infected erythrocytes or non infected erythrocytes at 1% of hematocrit and 50% of parasitemia. When used, Fasudil was added concomitantly with parasites at 30 μM. After 24 hours of incubation cells were washed and ice-cold lysed in phosphate buffer saline containing protease inhibitors. Cell lysates were then clarified by centrifugation at 4° C. 10,000 rpm for 2 min before measurement of protein concentrations. Cell extracts were equalized with lysis buffer to give identical protein concentrations before incubation in Rho-GTP affinity plate for 30 min at 4° C. […]
Briefly, RhoA activity in HLEC co-incubated during 24 hours with P. falciparum infected red blood cells (pRBC) or non infected red blood cells (RBC) was measured using the G-LISA™ RhoA activation kit (Cytoskeleton, Denver Colo.) as described in the Materials and Methods section.

[3] = tested on: P. falciparum-induced apoptosis of human lung endothelial cells (HLEC); experiment: APOPercentage quantitative apoptosis assay, pRBC/HLEC co-incubation; format: cell-based; settings: 24 hours pRBC exposure, purple dye pixel number (FIG. 4)
Protocol: Endothelial apoptosis was quantitatively assessed using APOPercentage™ dye purchased from Biocolor Ltd. (Belfast, Northern Ireland). The assay uses a purple-red colour dye that is selectively incorporated into apoptotic but not necrotic cells. Unilateral uptake of the dye occurs through phosphatidylserines of the outer membrane of cells that undergo apoptosis. Endothelial cells were cultured in 6-well plates until confluence before exposure to P. falciparum infected erythrocytes during 24 hours. HLEC were incubated for 1 hour with the Apopercentage dye (1/20) before co-incubation time is reached and delicately washed 3 times with PBS. Apoptosis was then quantified by Analytical Digital Photomicroscopy (ADP): for each experiment 4 representative fields of each well of cell cultures were photographed using inverted phase contrast microscope coupled with a digital camera. Images were then transferred to a computer and the level of apoptosis was expressed as a red pixel number counted by Adobe® Photoshop®.
Briefly, APOPercentage™ was used as a mean to quantify induced apoptosis and the effect of Fasudil on cell survival during pRBC/HLEC co-incubations by quantitatively assessing the […] of purple red dye by apoptotic HLEC using Analytical Digital Photomicroscopy (ADP). […]

SMILES: COC(=O)C[C@H](NC(=O)[C@H](C)NC(=O)[C@@H](NC(=O)OCc1ccccc1)C(C)C)C(=O)CF [z-vad, Z-VAD-fmk] (Cbz-Val-Ala-Asp(OMe)-CH2F)
- quantity of Evans Blue in the lower compartment (OD 630 nm) ([1]; pRBC/HLEC co-incubation in the presence of z-vad 10 μM or 100 μM (FIG. 5)): significantly reduced

SMILES: O=S(=O)(c1cccc2cnccc12)N1CCCNCC1 [Fasudil]
- P. falciparum-induced endothelial activation (% cells with nuclear NF-kappaB P65) [2]: significantly reduces
- quantity of Evans Blue marker in lower compartment (OD 630 nm) ([1]; HLEC exposed 4 hours to pRBC, then 30 μM Fasudil for 20 hours, vs HLEC and pRBC, p<0.01 (FIG. 6)): significantly lower
- activated RhoA concentration ([Rho-GTP], OD 490 nm) (RhoA/Rho-kinase pathway): significant decrease
- decrease in apoptosis of pRBC-exposed HLEC compared to non treated cells ([3]; 1 μM Fasudil): 1.4 fold
- decrease in apoptosis of pRBC-exposed HLEC compared to non treated cells ([3]; 30 μM): 4.1 fold
